# Source: paper PMC9652372, “Glycolytic flux control by drugging phosphoglycolate phosphatase” (Nature Communications, 2022)
# Residue numbers refer to the chain shown, from its start. Several values for one entry are separate records, joined by “and”; a condition that tells them apart may be missing. Equal entries are not always repeated. Entries after “also recorded” stand apart in the source; their conditions may differ.
# Columns and labels:
# murine PGP^C297S = target: T1, murine PGP^C297S (Mus musculus, UniProt Q8CHP8, C297S); assay: IC50 determination, PGP^C297S, PG dephosphorylation; format: biochemical
# T1 construct: His6 (N, cleaved yes); made in house; host or cells: Escherichia coli BL21 (DE3)
# T1 sequence (Q8CHP8 1-321 C297S): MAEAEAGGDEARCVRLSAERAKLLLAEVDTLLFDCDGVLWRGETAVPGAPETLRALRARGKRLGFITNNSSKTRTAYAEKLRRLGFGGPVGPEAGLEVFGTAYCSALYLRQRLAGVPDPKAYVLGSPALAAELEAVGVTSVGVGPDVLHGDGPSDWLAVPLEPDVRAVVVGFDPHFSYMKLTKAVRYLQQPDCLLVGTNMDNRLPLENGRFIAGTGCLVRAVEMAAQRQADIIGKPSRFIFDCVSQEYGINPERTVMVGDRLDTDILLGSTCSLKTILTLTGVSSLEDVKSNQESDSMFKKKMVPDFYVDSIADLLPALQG
# Experimental: . […] Data were analyzed with GraphPad Prism 7.04.
# Supplementary Figure 3 (related to Figure 2): Characterization of the homodimeric PGP variant PGPC297S. (a) In vitro phosphatase activity of purified murine PGPC297S in comparison to purified murine PGPWT, using 2- phosphoglycolate (PG) as substrate. (b) Determ ination of […]
# CP1. PG dephosphorylation was quantified using malachite green. All data in (a) and (b) are mean values ± S.E.M of n=3 independent experiments. Error bars not shown are hidden by the symbols. (c) PGP self-association in the absence or presence of CP1. Size- exclusion chromatography (SEC) of purified, recombinant murine PGP-WT in comparison to PGP-C297 […]
# (§1) (1 picture or pasted object on this page, not shown here)
# [1] = target: T2, murine PGP-WT / PGP-C297S (Mus musculus, UniProt Q8CHP8, C297S); assay: Size-exclusion chromatography, PGP self-association; conditions: SEC; 100 µM CP1
# T2 construct: His6 (N, cleaved yes); made in house; host or cells: Escherichia coli BL21 (DE3)
# T2 sequence (Q8CHP8 1-321 C297S): T1 sequence (Q8CHP8 1-321 C297S)
# Experimental: (§2) A volume of 900 µL was loaded onto a Superdex 200 10/300GL (Cytiva) size exclusion chromatography column operated on an ÄKTA liquid chromatography system.
# (§3) Error bars not shown are hidden by the symbols. (c) PGP self-association in the absence or presence of CP1. Size- exclusion chromatography (SEC) of purified, recombinant murine PGP-WT in comparison to PGP-C297 […]
# as §1
# (§4) (100 µM). SEC profiles of PGP -WT are the mean of n=3 independent experiments; PGP -C297S […]
# (§5) independent experiments. Statistical testing was done using a two-sided t-test, and the p- value
# [2] = target: T3, murine PGP-WT / PGP-C297S (Mus musculus, UniProt Q8CHP8); assay: as above; conditions: SEC, PGP-WT 30 µM; CP1 100 µM
# T3 construct: His6 (N, cleaved yes); made in house; host or cells: Escherichia coli BL21 (DE3)
# T3 sequence (Q8CHP8 1-321): T1 sequence (Q8CHP8 1-321 C297S) with S297C
# Experimental: as §2, §3, §1, §4, §5
# PGP^172FDPH>YDEQ = target: T4, PGP^172FDPH>YDEQ (Mus musculus, UniProt Q8CHP8, F172Y/H175Q/P174E); conditions: read-out: enzyme activity in presence of CP1 relative to DMSO control (1), mPGP-172FDPH>172YDEQ
# T4 sequence (Q8CHP8 1-321 F172Y/P174E/H175Q): T1 sequence (Q8CHP8 1-321 C297S) with F172Y, P174E, H175Q, S297C
# murine PGP = target: T5, murine PGP (Mus musculus, UniProt Q8CHP8); assay: IC50 determination, murine PGP, glycerol 3-phosphate (G3P) dephosphorylation (EnzChek)
# T5 sequence (Q8CHP8 1-321): T1 sequence (Q8CHP8 1-321 C297S) with S297C
# HT1080 cells = assay: Lipid droplet staining (perilipin-3); format: cell-based, human
# Experimental: Cells were fixed for 15 min with 4% para-formaldehyde, permeabilized and blocked with 0.2% saponin/2% bovine serum albumin (BSA) for 1 hr, and immunostained for 1 hr using α-rabbit TIP47/perilipin 3 antibodies (1:100 dilution, abcam #47638) in 0.2% saponin/1% BSA. Primary antibodies were detected with Alexa Fluor 488-labeled goat anti-rabbit secondary antibodies (1:400; Molecular Probes/Thermo Fisher Scientific), and nuclei were counterstained with DAPI. Cells were mounted with Immu-Mount (Fisher Scientific), and imaged by fluorescence microscopy on a THUNDER imager (THUNDER Imager Live Cell & 3D Cell Culture & 3D Assay system, Leica DMI8; Leica Microsystems), using a 63 × objective and the Leica Application suite X software 3.7.4.23463. To determine the number of lipid droplets per cell, cell borders were defined semi-automatically, and bright objects in this region of interest were counted using the ImagePro-Plus software version 7.0. Statistical significance was assessed using GraphPad Prism 9.4.1 software.
structure (smiles),measurement,setting,value
O=C(Nc1ccccc1C(=O)O)c1ccc(Oc2ccc(C(=O)Nc3ccccc3C(=O)O)cc2)cc1 [CP1],IC50,"murine PGP^C297S; PGP^C297S, substrate PG",~250 nM
same,remaining activity at […],"murine PGP^C297S; read-out: PGP-C297S activity in presence of CP1 relative to DMSO control, CP1 log[M] -5.60206",6.31%
same,remaining activity at 1.25 µM,"murine PGP^C297S; read-out: PGP-C297S activity in presence of CP1 relative to DMSO control, CP1 log[M] -5.90309",12.6%
same,remaining activity at 0.3125 µM,"murine PGP^C297S; read-out: PGP-C297S activity in presence of CP1 relative to DMSO control, CP1 log[M] -6.50515",44.1%
same,remaining activity at 0.15625 µM,"murine PGP^C297S; read-out: PGP-C297S activity in presence of CP1 relative to DMSO control, CP1 log[M] -6.80618",56.8%
same,remaining activity at 0.078125 µM,"murine PGP^C297S; read-out: PGP-C297S activity in presence of CP1 relative to DMSO control, CP1 log[M] -7.10721",72.1%
same,remaining activity at 0.03906 µM,"murine PGP^C297S; read-out: PGP-C297S activity in presence of CP1 relative to DMSO control, CP1 log[M] -7.40824",75.7%
same,remaining activity at 0.01953 µM,"murine PGP^C297S; read-out: PGP-C297S activity in presence of CP1 relative to DMSO control, CP1 log[M] -7.70927",90.1%
same,effect on PGP^C297S self-association,[1],did not affect
same,max. peak height of PGP tetramer/PGP total,[2],0.166 and 0.138 and 0.1887
same,remaining activity at 15.85 µM,"PGP^172FDPH>YDEQ; CP1 log[M] -4.80, Exp #1-#3",82%
same,remaining activity at 7.943 µM,"PGP^172FDPH>YDEQ; CP1 log[M] -5.10, Exp #1-#3",88%
same,remaining activity at 3.981 µM,"PGP^172FDPH>YDEQ; CP1 log[M] -5.40, Exp #1-#3",86%
same,remaining activity at 1.995 µM,"PGP^172FDPH>YDEQ; CP1 log[M] -5.70, Exp #1-#3",98%
same,remaining activity at 1 µM,"PGP^172FDPH>YDEQ; CP1 log[M] -6.00, Exp #2-#3",97%
same,remaining activity at 0.5012 µM,"PGP^172FDPH>YDEQ; CP1 log[M] -6.30, Exp #1-#3",88%
same,remaining activity at 0.2512 µM,"PGP^172FDPH>YDEQ; CP1 log[M] -6.60, Exp #1-#3",92%
same,remaining activity at 0.1259 µM,"PGP^172FDPH>YDEQ; CP1 log[M] -6.90, Exp #1-#3",86%
same,IC50,murine PGP,1040 ± 80 nM
same,remaining activity at 8 µM,"murine PGP; read-out: M.m PGP on G3P, activity, control = 100, CP1 log[M] -5.09691",13.8%
same,remaining activity at 4 µM,"murine PGP; read-out: M.m PGP on G3P, activity, control = 100, CP1 log[M] -5.39794",19.5%
same,remaining activity at 2 µM,"murine PGP; read-out: M.m PGP on G3P, activity, control = 100, CP1 log[M] -5.69897",32.5%
same,remaining activity at 1 µM,"murine PGP; read-out: M.m PGP on G3P, activity, control = 100, CP1 log[M] -6",53.8%
same,remaining activity at 0.5 µM,"murine PGP; read-out: M.m PGP on G3P, activity, control = 100, CP1 log[M] -6.30103",80%
same,remaining activity at […],"murine PGP; read-out: M.m PGP on G3P, activity, control = 100, CP1 log[M] -6.60206",91.2%
same,remaining activity at 0.125 µM,"murine PGP; read-out: M.m PGP on G3P, activity, control = 100, CP1 log[M] -6.90309",96.2%
same,remaining activity at 0.0625 µM,"murine PGP; read-out: M.m PGP on G3P, activity, control = 100, CP1 log[M] -7.20412",98.8%
same,remaining activity at 0.03125 µM,"murine PGP; read-out: M.m PGP on G3P, activity, control = 100, CP1 log[M] -7.50515",91.2%
same,lipid droplet (LD) accumulation,HT1080 cells,time- and concentration-dependent accumulation of LDs; also recorded: effectively increased LDs in PGP-WT but not in PGP-KO cells
